The values that follow come from patent US4379158A, “Antisecretory imidazole amidine compounds, composition and method of use” (Yamanouchi Pharmaceutical Co., Ltd., priority 1977, dated 1983).

The structures appear in SMILES notation. pIC50: −log10 of the molar value. Where a name gives a salt, the structure may show the parent alone.

For test [1], the target named is T1, Histamine H2-receptor (Cavia porcellus, UniProt P47747).
T1 construct: Atrial preparations isolated from guinea-pigs; from tissue; host or cells: isolated guinea-pig atria
Kind of test: Histamine H2-receptor blocking activity of test compounds in isolated guinea-pig atria (histamine-induced tachycardia). Type of test: cell-based, guinea-pigs. The following applies: 5×10^-6 M histamine, Krebs-Henseleit solution, 36° C., mean ± S.E. from 5 experiments, read-out: ED50 (dose producing a 50% blockade of chronotropic action of histamine). The procedure:
Atrial preparations isolated from guinea-pigs were suspended in Krebs-Henseleit solution at 36° C. (Mitchell, I. et al. Europ. J. Pharmacol., 34, 95, 1975). The dose producing a 50% blockade of chronotropic action of 5×10^-6 M histamine was obtained from the dose-respose curve in which the inhibition percentage was plotted semilogarithmically against dose.

Test [2] deals with gastric acid secretion. Description: Effect of test compounds on gastric acid secretion in pylorus-ligated rats. The test is classed as in vivo. The settings on record: 50 mg/kg intraduodenal, immediately after pylorus ligation, 7 rats, mean ± S.E., *p < 0.01; for Gastric contents, Volume: control 3.2 ± 0.3; for Gastric contents, Acid output: control 380 ± 40.1. The procedure: Rats weighing about 200 g. were deprived of food for 24 hours and their pylorus was ligated after an abdominal incision under ether anesthesia (Shay, H. et al.: Gastroenterol., 5, 43, 1945). Test compounds were intraduodenally given immediately after the pylorus ligation. The animals were sacrificed 4 hours after drug administration and gastric contents were collected. The gastric juice was titrated with 0.05 N NaOH to pH 7.0 for measurement of acidity.

Test [3] concerns H2-receptor. The settings on record: Ash and Schild 1966; Black et al. 1972; cited from earlier work.

T1 sequence (P47747 whole entry): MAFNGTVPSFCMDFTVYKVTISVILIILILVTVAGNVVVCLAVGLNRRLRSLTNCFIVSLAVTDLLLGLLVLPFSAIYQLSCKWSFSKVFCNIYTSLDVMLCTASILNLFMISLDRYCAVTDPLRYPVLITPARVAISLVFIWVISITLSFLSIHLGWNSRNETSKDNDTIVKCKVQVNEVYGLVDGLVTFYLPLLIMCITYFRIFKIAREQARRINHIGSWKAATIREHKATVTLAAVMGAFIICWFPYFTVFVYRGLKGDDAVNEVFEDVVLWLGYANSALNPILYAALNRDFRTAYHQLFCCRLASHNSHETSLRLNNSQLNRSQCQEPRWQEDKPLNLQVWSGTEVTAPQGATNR

As for `C#CCN=C(N)CCSCc1nc[nH]c1C` [Example 40, N2-Propynyl-3-[(5-methylimidazol-4-yl)methylthio]-propionamidine dihydrochloride], in test [1], the pIC50 is 5.64.
For `CN(C)Cc1ccc(CSCCC(N)=NC#N)o1` [Example 41, NCyano-3-[5-(dimethylaminomethyl)furfurylthio]-propionamidine], in test [2], the “Gastric contents, Volume” value stood at 1.5 ± 0.2 ml/4 hours/rat and the “Gastric contents, Acid output” value is recorded as 97 ± 17.2 μEq/4 hours/rat. In test [1], the pIC50 was 5.68.
On to `C#CCN=C(N)CCSCc1ccc(CN(C)C)o1` [Example 42, 3-[5-(Dimethylaminomethyl)furfurylthio]-N2-propynylpropionamidine dihydrochloride], for which, in test [2], the “Gastric contents, Volume” value is listed as 1.7 ± 0.3 ml/4 hours/rat and the “Gastric contents, Acid output” value was found to be 137 ± 31.5 μEq/4 hours/rat.
As to `Cc1[nH]cnc1CSCCC(N)=NC(N)=O` [Example 44, N-carbamoyl-3-(4-methyl-5-imidazolylmethylthio)-propionamidine], in test [2], the “Gastric contents, Volume” value is 1.4 ± 0.2 ml/4 hours/rat and the “Gastric contents, Acid output” value came to 79 ± 9.0 μEq/4 hours/rat. For the same molecule, the pIC50 in test [1] is 6.05.
As for `COc1ccc(CN(CCN(C)C)c2ccccn2)cc1` [mepyramine], the “inhibition/antagonism of the effects of histamine on gastric acid secretion and heart rate in isolated atrium (in words)” value in test [3] was “not inhibited”.
Turning to `C/N=C(\S)NCCSCc1[nH]cnc1C` [metiamide], the “inhibition/antagonism of the effects of histamine on gastric acid secretion and heart rate in isolated atrium (in words)” value in test [3] was “antagonized”.
